Results reported in ChEMBL document CHEMBL4483862, “Open-source discovery of chemical leads for next-generation chemoprotective antimalarials” (2018).

Test system: Plasmodium berghei
Assay: Luciferase/luciferin-expressing antifolate-resistant parasites were used to infect a culture of HepG2 cells that were pre-incubated with compounds. Infected hepatocytes emit light due to the luciferase reaction. Assay results are presented as the percent inhibition of light emission compared to control. […]
Assay type: functional
Conditions: sporozoite; for IC50: read-out: LUCIFERASE INFECTION ASSAY - IC50; for IC90: read-out: LUCIFERASE INFECTION ASSAY - IC90

Compound	IC50	IC90
FC(F)(F)c1cccc(NC(S)=Nc2ccc(Cl)c(Cl)c2)c1	> 9.04 µM	> 9.04 µM
O=C(CC1(O)C(=O)Nc2ccc(Br)cc21)c1ccc2c(c1)OCO2 (stereo unspecified)	> 8.46 µM	> 8.46 µM
COC(=O)c1cccc(NC(S)=Nc2ccc(Cl)c(Cl)c2)c1	> 9.29 µM	> 9.29 µM
CN(C)C(=O)Oc1ccc(Br)cc1C(=O)Nc1ccc(F)c(Cl)c1	> 7.94 µM	> 7.94 µM
COc1cc(NC(=O)c2ccc([N+](=O)[O-])o2)cc(C(F)(F)F)c1	> 9.99 µM	> 9.99 µM
Oc1c(Cl)cc(Cl)cc1-c1ccn[nH]1	> 14.4 µM	> 14.4 µM
Cc1nn(C(C)(C)C)c(C)c1/C=N/OC(=O)Nc1ccc(Cl)cc1	0.0825 µM	0.27 µM
O=C(Nc1ccc(F)c(Cl)c1)c1ccccc1O	> 12.4 µM	> 12.4 µM
CN(C)c1cc(-c2cc(Cl)sc2Cl)oc(=O)c1Cl	> 10.2 µM	> 10.2 µM
Cc1csc(NC(=O)Nc2ccc(C(F)(F)F)cc2)c1	> 11 µM	> 11 µM
O=C(CSc1ccccc1[N+](=O)[O-])NNC(=S)NC1CC2C=CC1C2 (stereo unspecified)	> 8.72 µM	> 8.72 µM
N=C(NOC(=O)c1cnn(-c2ccccc2)c1C(F)(F)F)c1ccc(Cl)cc1	1.06 µM	> 8.07 µM
O=[N+]([O-])c1ccc(/C=[N+](\[O-])c2ccccc2)s1	> 13.3 µM	> 13.3 µM
Brc1ccc(-c2cc(-c3ccccc3)cc(-c3ccccc3)n2)cc1	> 8.54 µM	> 8.54 µM
Cc1csc(-c2nc(-c3ccc(C(C)(C)C)cc3)no2)c1	> 11.1 µM	> 11.1 µM
COc1cccc(/C=N/NC(=S)NC2CC3CCC2C3)c1O (stereo unspecified)	> 10.3 µM	> 10.3 µM
Cc1c(C)c(C)c(CSC2=NCCCN2C2CCCCC2)c(C)c1C	> 8.35 µM	> 8.35 µM
CCOC(=O)C1=C(C)N(S(=O)(=O)c2ccc(C)cc2)C(SC)=NC1c1ccccc1 (stereo unspecified)	> 7.42 µM	> 7.42 µM
O=C(NCc1cc(C(F)(F)F)cc(C(F)(F)F)c1)c1ccc(Cl)c(Cl)c1	> 7.93 µM	> 7.93 µM
FC(F)(F)c1ccc2nc(SCc3nc(-c4ccc(Cl)cc4)no3)[nH]c2c1	> 8.03 µM	> 8.03 µM
N=C(NS(=O)(=O)c1ccc(Cl)c(Cl)c1)c1ccc(Cl)cc1	> 9.07 µM	> 9.07 µM

Compound	IC50	IC90
COc1cccc(CNC(=S)SCC(=O)C(C)(C)C)c1	> 10.6 µM	> 10.6 µM
CCO/C=N\C1=C(C#N)C(c2ccc(F)cc2)c2ccc3ccccc3c2O1 (stereo unspecified)	> 8.86 µM	> 8.86 µM
CCn1c2ccc(Cl)cc2c2cc(Cl)ccc21	> 12.5 µM	> 12.5 µM
Clc1ccc(Sc2ncnc3sccc23)cc1	> 11.8 µM	> 11.8 µM
CC(C)(C)c1ccc(C(=O)ONC(=O)c2ccc(Cl)c(Cl)c2)cc1	> 9.01 µM	> 9.01 µM
OC1(c2ccccc2)c2ccccc2-c2ccccc21	7.15 µM	> 12.8 µM
CN(C)c1ccc(C(=O)N/N=C/c2cc(Cl)cc(Cl)c2O)cc1	> 9.37 µM	> 9.37 µM
OC(CN1CCCCC1)Cn1c2ccc(Br)cc2c2cc(Br)cc(Br)c21 (stereo unspecified)	> 6.05 µM	> 6.05 µM
O=c1c(NNc2cccc(C(F)(F)F)c2)c(CSc2ccc(Cl)cc2)[nH]n1-c1ccccc1	> 6.72 µM	> 6.72 µM
O=C(Nc1cc(C(F)(F)F)cc(C(F)(F)F)c1)c1cnn(-c2ccccc2)c1C(F)(F)F	> 7.06 µM	> 7.06 µM
C=C(C)c1ccccc(=O)c1O	> 20.3 µM	> 20.3 µM
Cc1onc(-c2c(Cl)cccc2Cl)c1C(=O)Nc1ccccc1C(=O)NCc1c(F)cccc1Cl	> 6.19 µM	> 6.19 µM
CN(C)c1ccc(/C=N/NC(=O)c2ccccc2N)c(Cl)c1	> 10.4 µM	> 10.4 µM
O=S(=O)(NCc1cc(C(F)(F)F)cc(C(F)(F)F)c1)c1cc(C(F)(F)F)cc(C(F)(F)F)c1	> 6.35 µM	> 6.35 µM
COc1ccc2c3c(cccc13)C(=O)N(c1nc3ccccc3n1C)C2=O	> 9.23 µM	> 9.23 µM
Cc1nc2c(C)cccn2c1C(=O)NN1C(=O)CSC1c1ccccc1 (stereo unspecified)	7.23 µM	> 8 µM
CS(=O)(=O)c1ccc(C(F)(F)F)cc1[N+](=O)[O-]	> 12.3 µM	> 12.3 µM
O=C(NCc1cc(Cl)cc(Cl)c1)c1cc(C(F)(F)F)cc(C(F)(F)F)c1	> 7.93 µM	> 7.93 µM
CC(C)c1ccc(/C=N/NC(=O)CC#N)cc1	> 14.4 µM	> 14.4 µM
COc1ccc2c(c1)nnc1nnc(SCC(=O)N3CCOCC3)n12	> 9.16 µM	> 9.16 µM
O=C(c1ccc(Sc2ccccc2)c([N+](=O)[O-])c1)N(Cc1ccc2c(c1)OCO2)c1ccc(F)cc1	> 6.57 µM	> 6.57 µM

Compound	IC50	IC90
CCCc1c(C(=O)ONC(=N)c2ccc(C(C)(C)C)cc2)cnn1-c1ccccc1	> 8.16 µM	> 8.16 µM
O=C(CCCC(=O)Nc1cc(C(F)(F)F)cc(C(F)(F)F)c1)Nc1cc(C(F)(F)F)cc(C(F)(F)F)c1	1.07 µM	> 5.95 µM
CCCCNC(=O)N1CCC(C(=O)c2c(C)c(C)c(C)c(C)c2C)CC1	> 9.2 µM	> 9.2 µM
COc1ccc(S(=O)(=O)Nc2ccccc2Sc2ncnc3scc(C)c23)cc1	> 7.44 µM	> 7.44 µM
Fc1cccc(F)c1NC(=S)Nc1cc(C(F)(F)F)cc(C(F)(F)F)c1	> 8.24 µM	> 8.24 µM
O=C(Nc1ccc(F)cc1)Nc1cnn(-c2ccc([N+](=O)[O-])cc2)c1C(F)(F)F	2.92 µM	> 8.06 µM
CN(/N=C/c1cc(Cl)cc(Cl)c1O)c1ccc(C(F)(F)F)cc1[N+](=O)[O-]	> 8.09 µM	> 8.09 µM
CCOC(=O)C(NC(=O)c1ccco1)(Nc1ccc(F)c(Cl)c1)C(F)(F)F (stereo unspecified)	> 8.07 µM	> 8.07 µM
COc1ccc(C2c3ccc4ccccc4c3OC(=N)C2C#N)cc1 (stereo unspecified)	> 10 µM	> 10 µM
Cc1cc(C)c(CSC2=NCCCN2C2CCCCC2)c(C)c1	> 8.99 µM	> 8.99 µM
COC(=O)c1cccc(NC(=S)NC(=O)c2ccc(C(C)(C)C)cc2)c1	> 8.91 µM	> 8.91 µM
N#CC1C(=N)Oc2c(ccc3ccccc23)C1c1ccc(Cl)cc1 (stereo unspecified)	> 9.92 µM	> 9.92 µM
O=C(NCc1cc(C(F)(F)F)cc(C(F)(F)F)c1)c1cc(Cl)cc(Cl)c1	> 7.93 µM	> 7.93 µM
Cc1nn(C(=O)c2c(Cl)cccc2Cl)c(C)c1Cc1c(F)cccc1Cl	7 µM	> 8.02 µM
COc1cc(C(O)c2cc(C(F)(F)F)cc(C(F)(F)F)c2)cc(OC)c1OC (stereo unspecified)	7.33 µM	> 8.04 µM
OC(Cc1ccccc1)(c1ccccc1)c1ccccc1/N=C/c1ccc(Cl)c(Cl)c1 (stereo unspecified)	> 7.39 µM	> 7.39 µM
O=C(Nc1cc(Cl)cc(Cl)c1)c1ccccc1O	3.79 µM	4.44 µM
O=C1/C(=C/c2ccccc2Cl)CCC/C1=C\c1ccccc1Cl	> 9.61 µM	> 9.61 µM
CN1C/C(=C\c2ccccc2)C(=O)/C(=C/c2ccccc2)C1	> 11.4 µM	> 11.4 µM
NC(/C=C/c1cc(C(F)(F)F)cc(C(F)(F)F)c1)=N\O	> 11.1 µM	> 11.1 µM
CN1C/C(=C\c2ccc(Cl)cc2)C(=O)/C(=C/c2ccc(Cl)cc2)C1	7 µM	> 9.21 µM
